Laboratory results: patent US10940149B1, “Kinase inhibitor salts and compositions thereof” (HANDA ONCOLOGY, LLC, priority 2018, dated 2021)
Counter-ions that a name gives are not always drawn.

How the values were obtained:
[1] = solubility of nilotinib salts, HPLC (Example 38A); assay type: physicochemical; conditions: 37 °C, pH 1, simulated gastric fluid, thermodynamic from solid
Procedure: (§1) The reaction mass was filtered and the filtrate solution was measured by HPLC.

physchem = conditions: 37 °C, pH 1, simulated gastric fluid, thermodynamic from solid
Procedure: as §1

[2] = solubility of nintedanib salts at room temperature, HPLC (Example 25A); assay type: physicochemical; conditions: thermodynamic from solid
Procedure: as §1

[3] = HPLC impurity and stability of nilotinib lauryl sulfate salts and dosage forms (Example 62); assay type: physicochemical
Procedure: Mobile phase A was 0.25% Formic Acid/acetonitrile in a volume ratio of 90/10.
Mobile phase B was 0.1% Formic Acid/acetonitrile in a volume ratio of 10/90.
Additional diluent is added so the test sample is approximately 0.10 mg of nilotinib per mL.
The test sample of the dosage forms prepared in Examples 60 F and 60 G were prepared by the following procedure:
1. Cut the tip of the capsule with scissors and squeeze the contents from the hole into the 100-mL volumetric flask. Cut the capsule into two parts and add the parts to the flask. Add 80% full of ethanol, sonicate for 10 minutes and stir at 800 rpm for 30 minutes to dissolve the contents completely.
2. Dilute to volume with ethanol, mix well by inverting the flask NLT 10 times
3. Pipette 3 ml into 25-mL amber volumetric flask and add ethanol to volume, mix well by inverting the flask NLT 10 times. The test sample is approximately 0.096 mg of nilotinib per mL.
The nilotinib dilauryl sulfate salt prepared in Example 26 were tested for impurities and stability using HPLC with the following parameters:
The test sample of the nilotinib dilauryl sulfate salt prepared in Example 26 were prepared by weighing about 10 mg of nilotinib dilauryl sulfate (equivalent to 5 mg of nilotinib) and transfer into a 25-mL amber volumetric flask, adding 20 mL of diluent (ethanol), sonicating for about 5 minutes and stirring at 800 rpms for about 5 minutes until the nilotinib dilauryl sulfate is dissolved. Additional diluent is added so the test sample is approximately 0.20 mg of nilotinib per mL.

[4] = HPLC impurity and stability of dasatinib lauryl sulfate salts and capsules (Example 54); assay type: physicochemical
Procedure: The RRT was determined using HPLC with the following parameters:
The mobile phase A was 0.05 M aqueous Ammonium Acetate (pH 5.25)/Acetonitrile/Methanol in a volume ratio of 90/5/5.
The mobile phase B was 0.05 M aqueous Ammonium Acetate (pH 5.25)/Acetonitrile/Methanol in a volume ratio of 10/85/5.
Additional methanol is added so the test sample is approximately 0.20 mg of dasatinib per mL.

[5] = solubility of dasatinib salts at 37° C., HPLC (Example 47A); assay type: physicochemical; conditions: for solubility: thermodynamic from solid
Procedure: as §1

[6] = 60° C./75% R.H. 1 week, HDPE bottle, HPLC Inertsil ODS-3 (NLB-2LS method)
[7] = Room temp., HPLC Inertsil ODS-3 (NLB-2LS method)

SMILES: Cc1cn(-c2cc(NC(=O)c3ccc(C)c(Nc4nccc(-c5cccnc5)n4)c3)cc(C(F)(F)F)c2)cn1 [Nilotinib HCl]
- solubility [1]: 3800 µg/mL

SMILES: Cc1ccc(Nc2nccc(N(C)c3ccc4c(C)n(C)nc4c3)n2)cc1S(N)(=O)=O [Pazopanib Hydrochloride, pazopanib hydrochloride]
- solubility (physchem): 3360 µg/mL

SMILES: COC(=O)c1ccc2c(c1)NC(=O)/C2=C(\Nc1ccc(N(C)C(=O)CN2CCN(C)CC2)cc1)c1ccccc1 [nintedanib esylate]
- solubility ([2]; aqueous buffer, 0.05 M acetate buffer, pH = 4.5): 6260 µg/mL
- solubility ([2]; aqueous buffer, 0.05 M phosphate buffer, pH = 6.8): 2.2 µg/mL
- solubility ([2]; simulated gastric fluid, 0.1 N HCl, pH = 1.0): 107000 µg/mL

SMILES: CCCCCCCCCCCCOS(=O)(=O)O.Cc1cn(-c2cc(NC(=O)c3ccc(C)c(Nc4nccc(-c5cccnc5)n4)c3)cc(C(F)(F)F)c2)cn1 [Example 46, nilotinib monolauryl sulfate]
- impurity at RRT 1.16 ([3]; 60° C./75% R.H. 2 weeks, HDPE bottle, HPLC Xterra RP18 (NLB-1LS method)): 0.07%
- impurity at RRT 1.16 ([3]; Room temp., HPLC Xterra RP18 (NLB-1LS method)): 0.07%

SMILES: CCCCCCCCCCCCOS(=O)(=O)O.CCCCCCCCCCCCOS(=O)(=O)O.Cc1nc(Nc2ncc(C(=O)Nc3c(C)cccc3Cl)s2)cc(N2CCN(CCO)CC2)n1 [Example 13, dasatinib dilauryl sulfate]
- impurity at RRT 0.87 ([4]; 40° C./75% R.H., 1 Month): 0.06
- impurity at RRT 0.94 (DAS PIP) ([4]; 40° C./75% R.H., 1 Month): 0.09
- impurity at RRT 0.96 ([4]; 40° C./75% R.H., 1 Month): 0.14
- impurity at RRT 1.31 (DAS-6) ([4]; 40° C./75% R.H., 1 Month): 0.04
- impurity at RRT 0.87 ([4]; Initial): 0.06
- impurity at RRT 0.94 (DAS PIP) ([4]; Initial): 0.09
- impurity at RRT 0.96 ([4]; Initial): 0.13
- impurity at RRT 1.31 (DAS-6) ([4]; Initial): 0.02

SMILES: Cc1nc(Nc2ncc(C(=O)Nc3c(C)cccc3Cl)s2)cc(N2CCN(CCO)CC2)n1 [dasatinib]
- aqueous solubility, pH dependence [5]: varied with pH
- solubility ([5]; aqueous buffer, 0.05M acetate buffer, pH = 4.5): 86.9 µg/mL
- solubility ([5]; aqueous buffer, 0.05M phosphate buffer, pH = 6.8): 0.18 µg/mL
- solubility ([5]; simulated gastric fluid, 0.1N HCl, pH = 1.0): 654 µg/mL

SMILES: CCCCCCCCCCCCOS(=O)(=O)O.Cc1nc(Nc2ncc(C(=O)Nc3c(C)cccc3Cl)s2)cc(N2CCN(CCO)CC2)n1 [Example 12, dasatinib monolauryl sulfate]
- impurity at RRT 0.96 ([4]; 40° C./75% R.H., 1 Month): 0.09
- impurity at RRT 1.10 (2-Chloro-6-methylaniline) ([4]; 40° C./75% R.H., 1 Month): 0.04
- impurity at RRT 1.31 (DAS-6) ([4]; 40° C./75% R.H., 1 Month): 0.02
- impurity at RRT 0.87 ([4]; 40° C./75% R.H., 3 Months): 0.02
- impurity at RRT 0.94 (DAS PIP) ([4]; 40° C./75% R.H., 3 Months): 0.03
- impurity at RRT 0.96 ([4]; 40° C./75% R.H., 3 Months): 0.10
- impurity at RRT 1.10 (2-Chloro-6-methylaniline) ([4]; 40° C./75% R.H., 3 Months): 0.03
- impurity at RRT 1.31 (DAS-6) ([4]; 40° C./75% R.H., 3 Months): 0.03
- impurity at RRT 0.87 ([4]; Initial): 0.02
- impurity at RRT 0.94 (DAS PIP) ([4]; Initial): 0.02
- impurity at RRT 0.96 ([4]; Initial): 0.09
- impurity at RRT 1.10 (2-Chloro-6-methylaniline) ([4]; Initial): 0.02
- impurity at RRT 1.31 (DAS-6) ([4]; Initial): 0.02

SMILES: CCCCCCCCCCCCOS(=O)(=O)O.CCCCCCCCCCCCOS(=O)(=O)O.Cc1cn(-c2cc(NC(=O)c3ccc(C)c(Nc4nccc(-c5cccnc5)n4)c3)cc(C(F)(F)F)c2)cn1 [Example 26, nilotinib dilauryl sulfate]
- impurity at RRT 0.81 [3, 6]: 0.05%
- impurity at RRT 1.09 [3, 6]: 0.07%
- impurity at RRT 1.16 [3, 6]: 0.11%
- impurity at RRT 1.28 [3, 6]: 0.08%
- impurity at RRT 1.09 [3, 7]: 0.07%
- impurity at RRT 1.16 [3, 7]: 0.10%
- impurity at RRT 1.28 [3, 7]: 0.02%
